Measurements taken from ChEMBL document CHEMBL1141197, “Interaction of papain-like cysteine proteases with dipeptide-derived nitriles” (J Med Chem, 2005).
Where a SMILES comes first, the peptide text is derived from it. The star is where a group is joined. Boc = CC(C)(C)OC(=O)*

Assays:
[1] = molecular target: T1, Cathepsin K (Homo sapiens, UniProt P43235); experiment: Inhibitory activity against human cathepsin K using Z-Leu-Arg-NHMec substrate
T1 sequence (P43235 whole entry): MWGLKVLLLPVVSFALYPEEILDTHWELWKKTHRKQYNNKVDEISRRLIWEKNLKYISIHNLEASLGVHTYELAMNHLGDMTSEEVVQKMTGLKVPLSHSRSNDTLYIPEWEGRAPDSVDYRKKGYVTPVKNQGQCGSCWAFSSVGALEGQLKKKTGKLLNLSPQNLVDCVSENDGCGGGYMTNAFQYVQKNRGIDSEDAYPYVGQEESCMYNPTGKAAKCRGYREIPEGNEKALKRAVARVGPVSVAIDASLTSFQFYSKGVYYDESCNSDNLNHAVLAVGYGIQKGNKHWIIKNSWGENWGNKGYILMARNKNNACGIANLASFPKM

[2] = molecular target: Procathepsin L (Bos taurus, UniProt P25975); experiment: Inhibitory activity against bovine cathepsin L using Z-Phe-Arg-NHMec substrate
[3] = molecular target: T2, Papain (Carica papaya, UniProt P00784); experiment: Inhibitory activity against papain using Z-Phe-Arg-NHNp substrate
T2 sequence (P00784 whole entry): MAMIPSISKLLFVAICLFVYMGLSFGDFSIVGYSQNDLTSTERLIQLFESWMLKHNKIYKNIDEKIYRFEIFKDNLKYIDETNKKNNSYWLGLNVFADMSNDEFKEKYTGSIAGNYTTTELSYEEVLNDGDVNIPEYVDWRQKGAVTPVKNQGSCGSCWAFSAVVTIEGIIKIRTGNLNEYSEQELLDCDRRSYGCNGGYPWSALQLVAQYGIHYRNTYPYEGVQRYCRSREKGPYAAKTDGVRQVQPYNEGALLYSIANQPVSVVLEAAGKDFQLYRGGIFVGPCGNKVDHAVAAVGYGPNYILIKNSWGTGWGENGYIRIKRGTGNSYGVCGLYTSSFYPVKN

[4] = molecular target: Cathepsin S (Homo sapiens, UniProt P25774); experiment: Inhibitory activity against human cathepsin S using Z-Val-Val-Arg-NHMec substrate
[5] = molecular target: Procathepsin L (Homo sapiens, UniProt P07711); experiment: Inhibitory activity against human cathepsin L using Z-Phe-Arg-NHMec substrate
Sequence of Procathepsin L (Homo sapiens, UniProt P07711) (P07711 whole entry): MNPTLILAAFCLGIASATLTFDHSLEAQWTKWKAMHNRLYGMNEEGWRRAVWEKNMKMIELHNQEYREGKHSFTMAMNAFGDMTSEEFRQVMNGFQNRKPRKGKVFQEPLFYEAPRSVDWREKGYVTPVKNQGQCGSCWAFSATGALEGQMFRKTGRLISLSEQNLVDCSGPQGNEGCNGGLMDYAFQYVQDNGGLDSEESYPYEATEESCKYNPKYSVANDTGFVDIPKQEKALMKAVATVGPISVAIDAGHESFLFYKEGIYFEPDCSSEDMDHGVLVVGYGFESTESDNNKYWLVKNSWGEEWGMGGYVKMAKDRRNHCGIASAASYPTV

Sequence of Procathepsin L (Bos taurus, UniProt P25975) (P25975 whole entry): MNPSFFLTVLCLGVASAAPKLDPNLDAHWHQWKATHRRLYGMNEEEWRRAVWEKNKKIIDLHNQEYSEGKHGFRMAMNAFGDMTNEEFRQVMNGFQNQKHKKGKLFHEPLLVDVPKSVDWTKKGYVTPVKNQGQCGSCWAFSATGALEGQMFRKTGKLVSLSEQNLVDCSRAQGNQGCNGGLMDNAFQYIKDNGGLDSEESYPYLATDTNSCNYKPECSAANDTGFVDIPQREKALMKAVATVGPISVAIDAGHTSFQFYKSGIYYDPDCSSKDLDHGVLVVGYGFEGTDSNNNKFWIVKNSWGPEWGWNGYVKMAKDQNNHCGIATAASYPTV
Sequence of Cathepsin S (P25774 whole entry): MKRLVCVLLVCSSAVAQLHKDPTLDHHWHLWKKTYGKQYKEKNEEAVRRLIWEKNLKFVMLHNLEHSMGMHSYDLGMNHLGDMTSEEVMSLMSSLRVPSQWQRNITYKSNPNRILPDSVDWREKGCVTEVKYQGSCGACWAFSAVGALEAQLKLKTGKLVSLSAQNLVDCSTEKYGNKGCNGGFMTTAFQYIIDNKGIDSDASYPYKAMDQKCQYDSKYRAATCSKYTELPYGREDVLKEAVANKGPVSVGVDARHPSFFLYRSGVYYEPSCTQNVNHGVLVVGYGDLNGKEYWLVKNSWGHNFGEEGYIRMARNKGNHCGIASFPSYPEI

Row | SMILES | Ki [1] [µM] | Ki [2] [µM] | Ki [3] [µM] | Ki [4] [µM] | Ki [5] [µM]
1 | N#CCNC(=O)CNS(=O)(=O)c1ccc2ccccc2c1 | > 100 | 25 | 10 | 2.5 | –
2 | CC(C)(C)OC(=O)N[C@@H](Cc1cccc(F)c1)C(=O)NCC#N | 6.3 | 0.7 | 0.5 | 0.86 | –
3 | CC(C)(C)OC(=O)N[C@@H](Cc1ccccc1)C(=O)NCC=O (Boc-Phe-Gly-aldehyde) | 0.074 | 0.022 | 0.015 | 0.025 | –
4 | CC(C)(C)OC(=O)NCC(=O)NCC#N | > 1000 | > 1000 | > 3000 | > 1000 | –
5 | CC[C@H](NC(=O)OC(C)(C)C)C(=O)NCC#N | 5 | > 100 | 5.4 | 28 | –
6 | C=CCNC(=O)[C@H](Cc1ccccc1)NC(=O)OC(C)(C)C | > 1000 | > 1000 | 497 | > 100 | –
7 | CC(C)(C)OC(=O)N[C@@H](Cc1csc2ccccc12)C(=O)NCC#N | 34 | 0.32 | 7.4 | 0.3 | 0.29
8 | N#CCNC(=O)[C@H](Cc1ccccc1)NC(=O)c1ccccc1 | 1.5 | 0.23 | 0.062 | 0.077 | –
9 | CSCC[C@H](NC(=O)OC(C)(C)C)C(=O)NCC#N | 0.73 | 19 | 0.65 | 0.66 | –
10 | CC(C)(C)OC(=O)N[C@@H](Cc1ccsc1)C(=O)NCC#N | 2.1 | 4.5 | 0.57 | 0.76 | –
11 | CC(C)(C)OC(=O)N1CCC[C@H]1C(=O)NCC#N | > 100 | > 100 | 537 | > 100 | –
12 | CC[C@@H](C)[C@H](NC(=O)OC(C)(C)C)C(=O)NCC#N | 5.8 | 4.9 | 26 | 4.1 | –
13 | N#CCNC(=O)[C@H](Cc1ccccc1)NC(=O)OCc1ccccc1 | 0.26 | 0.18 | 0.36 | 0.51 | 0.23
14 | CC(C)(C)OC(=O)N[C@H](C(=O)NCC#N)c1ccccc1 | 90 | 29 | 83 | 1.7 | –
15 | CCC[C@H](NC(=O)OC(C)(C)C)C(=O)NCC#N | 1.1 | 22 | 0.75 | 0.9 | –
16 | CC(C)(C)OC(=O)N[C@@H](CCc1ccccc1)C(=O)NCC#N | 8.5 | 9.4 | 12 | 1.9 | –
17 | CC(C)(C)OC(=O)N[C@@H](Cc1cccc2ccccc12)C(=O)NCC#N | 66 | 1.7 | 28 | 1.3 | –
18 | CC(C)(C)OC(=O)N[C@@H](CC1CC1)C(=O)NCC#N | 3.3 | 47 | 13 | 0.65 | –
19 | CC(C)[C@H](NC(=O)OC(C)(C)C)C(=O)NCC#N | 6.5 | 2.8 | 2 | 6.2 | –
20 | CC(=O)CNC(=O)[C@H](Cc1ccccc1)NC(=O)OC(C)(C)C | 2.1 | 2.3 | 187 | 2.1 | –
21 | C#CCNC(=O)[C@H](Cc1ccccc1)NC(=O)OC(C)(C)C | > 1000 | > 1000 | 497 | > 100 | –
22 | N#CCNC(=O)CNC(=O)OCc1ccccc1 | > 1000 | > 1000 | 1600 | > 1000 | –
23 | CC(C)(C)OC(=O)N[C@@H](Cc1ccccc1F)C(=O)NCC#N | 3.3 | 0.47 | 0.4 | 0.77 | –
24 | CC(C)(C)OC(=O)N[C@@H](Cc1ccc(O)cc1)C(=O)NCC#N | 30 | 0.4 | 0.19 | 0.97 | –
